Drawing on patent US20230048888A1, “USE OF TRIAZOLOTRIAZINE DERIVATIVE IN TREATMENT OF DISEASES” (ZHEJIANG VIMGREEN PHARMACEUTICALS, LTD., priority 2019, published 2023), this text covers IC50 for two molecules.

Assay [1] concerns the target T1, Human adenosine ADORA1 receptor membrane protein (Homo sapiens, UniProt P30542).
T1 construct: purchased PerkinElmer ES-010-M400UA
T1 sequence (P30542 1-326): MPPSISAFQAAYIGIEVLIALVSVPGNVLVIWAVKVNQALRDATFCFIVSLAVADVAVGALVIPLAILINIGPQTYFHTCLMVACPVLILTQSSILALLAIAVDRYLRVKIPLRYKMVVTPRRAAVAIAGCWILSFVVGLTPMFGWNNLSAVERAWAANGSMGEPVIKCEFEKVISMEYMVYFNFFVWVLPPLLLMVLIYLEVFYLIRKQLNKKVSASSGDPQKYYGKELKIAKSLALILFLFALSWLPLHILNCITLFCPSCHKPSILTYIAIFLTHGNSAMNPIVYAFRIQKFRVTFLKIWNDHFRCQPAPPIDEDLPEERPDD
Put plainly: Radioisotope ligand competitive binding, ADORA1 ([3H] DPCPX). The following applies: ADORA1 (IC50, nM, n = 3), binding test. How it is done: ADORA1: 25 mM HEPES pH 7.4, 5 mM MgCl2, 1 mM CaCl2, 100 mM NaCl
4) Preparation of compounds: the test compounds and the reference compounds were separately diluted with 100% DMSO.
1 μL of a sample to be tested and 1 μL of a reference compound were added to a 96-well plate in sequence. […] 100 μL of cells and 100 μL of isotopes were added to all experimental wells. The 96-well plate was sealed; ADORA1, ADORA2B, and ADORA3 were incubated for 1 hour on a shaker (300 rpm) at room temperature (22° C.); and ADORA2A was incubated for 2 hours on a shaker (300 rpm) at room temperature (22° C.). At the same time, a GF/C filter plate was soaked with ADORA1, ADORA2A, ADORA2B, and ADORA3 by using 0.3% PEI for at least 30 minutes at room temperature, at 50 μL/well. After the incubation was completed, the incubated reaction system was collected onto the GF/C filter plate with a Harvester, washed 4 times and then dried for 0.5 hours in an oven at 50° C. The bottom of the dried GF/C filter plate was sealed with a film, 50 μL of scintillation solution was added to each well, which was then sealed with a Top-seal-A film. With Microbeta readings, the data was analyzed by GraphPad Prism 5.0.
% Inhibition=100×(1−(Sample_raw value−Low control_Average)/(High control_Average−Low control_Average))
The data was fitted with “log(inhibitor) vs response-variable slope” in GraphPad Prism 5.0 to obtain IC50.

The target of another assay is T2, human ADORA1 (Homo sapiens, UniProt P30542).
T2 construct: host or cells: HEK293
Put plainly: Calcium flow test (FLIPR), ADORA1 stably transfected HEK293. In kind it is cell-based. Particulars: Table 9. From the text: The binding of the A2AR agonist to A2AR could activate a downstream pathway to increase the intracellular calcium ion concentration. The antagonist would competitively occupy the binding site where the agonist binds to A2AR, thereby interrupting the intracellular signal transduction and leading to a change in the intracellular calcium ion concentration. By detecting the strength of the intracellular calcium ion signal, the antagonistic activities of the compound on human ADORA1, ADORA2A, ADORA2B and ADORA3 adenosine receptors were determined. […]
7) The FLIPR instrument software was operated; following a set program, 10 μL of experimental buffer salt solution was added to the cell plate; and fluorescence signals were read. Then, 10 μL of the reference compound of agonist at a predetermined concentration was added to the cell plate, and the fluorescence signals were read. After reading, data was exported by means of “Max-Min” and “Read 91 to Maximum allowed” in the software, the EC80 of each cell line was calculated, and an agonist with a concentration of 6×EC80 was prepared.
9) The FLIPR instrument software was operated; following a set program, 10 μL of the test compound and 10 μL of the reference compound were added at a predetermined concentration to the cell plate; and the fluorescence signals were read. […]

One may read the IC50 as the concentration that inhibits the measured activity by half.

Take `Nc1nc(NCCc2ccc(NC3COC3)cc2)nc2nc(-c3ccco3)nn12` [Compound 22, 2-(furan-2-yl)-N5-(4-(oxetan-3-ylamino)phenethyl)-[1,2,4]triazolo[1,5-a][1,3,5]triazine-5,7-diamine]: the IC50 in assay [1] (Table 10 (IC50)) turned out to be 821 ± 54.2 nM; in assay [1] (Table 11), 564 nM; on human ADORA1, 218 ± 148 nM.
In the same order, the values of `Cn1nnc(-c2ccc(CCNc3nc(N)n4nc(-c5ccco5)nc4n3)cc2)n1` [Compound 40, N5-(4-(2-methyl-2H-tetrazol-5-yl)phenethyl)-2-(furan-2-yl)-[1,2,4]triazolo[1,5-a][1,3,5]triazine-5,7-diamine] are 552 ± 283 nM, 441 nM and 228 ± 105 nM.
